{"source": "paper PMC3298469", "about": "“A selective and potent CXCR3 antagonist SCH 546738 attenuates the development of autoimmune diseases and delays graft rejection” (BMC Immunology, 2012)", "key": {"male B10.RIII mice": {"system": "male B10.RIII mice", "experiment": "mouse collagen-induced arthritis (disease score and paw histopathology)", "format": "in vivo", "experimental": "Briefly, 12-week-old male B10.RIII mice (Jackson Laboratories, Bar Harbor, ME) were immunized intradermally at five sites with bovine type II collagen (Elastin Products, Owensville, MO) emulsified with an equal volume of complete Freund's adjuvant (CFA). CFA was comprised of a mixture of incomplete Freund's adjuvant (Difco, Detroit, MI) and heat-killed, freeze-dried Mycobacteria tuberculosis (Ministry of Agriculture, Fisheries & Food, Surrey, England). Each mouse received 300 µg/ml bovine type II collagen and 0.5 mg/ml complete Freund's adjuvant. Mice were boosted intraperitoneally with 100 µg of bovine type II collagen on day 20. Disease progression was monitored by a standardized visual scoring system with a scale from 0 to 12 reflecting the degree of swelling/redness of each paw (maximal score 3 per paw) and the number of paws (maximal 4) involved per individual animal.\nAfter euthanasia, front and hind paws of the animals were dissected and fixed by immersion in 10% phosphate-buffered formalin before decalcification. Following decalcification with Cal-Rite (Richard Allen Scientific, Kalamazoo, MI), formalin fixed tissues were processed and sectioned at 5µm. Paraffin sections were stained with Hematoxylin and Eosin (H&E). […] The changes in joint structures, including cartilage destruction, bone erosion/remodelling and pannus formation were scored as follows: 0 = Normal, 1 = Minimal, 2 = Mild, 3 = Moderate, 4 = Marked, 5 = Severe. A grade of 5.5 was also added to address full-thickness cartilage breach. Cellular infiltrates and inflammation in animal joints were scored as the following: 0 = Normal, 1 = Minimal, 2 = Mild, 3 = Moderate, 4 = Marked.\nStatistical significance was evaluated by comparing the vehicle-treated group with the experimental group using unpaired t-test. Differences were considered significant when p values were <0.05.\nSixteen days later which was 4 days prior to receiving a BC II boost (day -4); mice were randomized into treatment groups with approximately 10% of the animals in each group having developed at least one swollen paw. Oral twice daily treatment with SCH 546738 was initiated at this time (day -4) and continued through day 9, with a BC II antigen boost on day 0.\nSCH 546738 in 0.4% methylcellulose was administered orally twice daily at 3, 10 and 40 mg/kg (mpk). Dosing was initiated 16 days (day -4) postimmunization and continued through day 9.\nPaws collected at day 9 from the vehicle (0.4% methylcellulose) and 40 mpk SCH 546738 groups of two independent experiments were analyzed by histopathology."}, "CCR5": {"target": "CCR5 (Homo sapiens, UniProt P51681)", "experiment": "GPCR counterscreen binding assay", "procedure": "(§1) SCH 546738 was tested at concentrations of 1-10 μM against a panel of 49 GPCR binding assays. Most of the assays were not affected by SCH 546738 (Table 2). […] In addition, SCH 546738 has a favourable pharmacokinetic profile in rodents. […] Therefore, SCH 546738 is suitable for in vivo preclinical studies."}, "Dopamine D1": {"target": "Dopamine D1 (Homo sapiens, UniProt P21728)", "experiment": "GPCR counterscreen binding assay", "procedure": "as §1"}, "Adrenergic α1B": {"target": "Adrenergic α1B (Homo sapiens, UniProt P35368)", "experiment": "GPCR counterscreen binding assay", "procedure": "as §1"}, "Neurokinin NK2": {"target": "Neurokinin NK2 (Homo sapiens, UniProt P21452)", "experiment": "GPCR counterscreen binding assay", "procedure": "as §1"}, "CCR7": {"target": "CCR7 (Homo sapiens, UniProt P32248)", "experiment": "GPCR counterscreen binding assay", "procedure": "as §1"}, "Vasopressin (V2)": {"target": "Vasopressin (V2) (Homo sapiens, UniProt P30518)", "experiment": "GPCR counterscreen binding assay", "procedure": "as §1"}, "Adrenergic α2B": {"target": "Adrenergic α2B (Homo sapiens, UniProt P18089)", "sequence (P18089 whole entry)": "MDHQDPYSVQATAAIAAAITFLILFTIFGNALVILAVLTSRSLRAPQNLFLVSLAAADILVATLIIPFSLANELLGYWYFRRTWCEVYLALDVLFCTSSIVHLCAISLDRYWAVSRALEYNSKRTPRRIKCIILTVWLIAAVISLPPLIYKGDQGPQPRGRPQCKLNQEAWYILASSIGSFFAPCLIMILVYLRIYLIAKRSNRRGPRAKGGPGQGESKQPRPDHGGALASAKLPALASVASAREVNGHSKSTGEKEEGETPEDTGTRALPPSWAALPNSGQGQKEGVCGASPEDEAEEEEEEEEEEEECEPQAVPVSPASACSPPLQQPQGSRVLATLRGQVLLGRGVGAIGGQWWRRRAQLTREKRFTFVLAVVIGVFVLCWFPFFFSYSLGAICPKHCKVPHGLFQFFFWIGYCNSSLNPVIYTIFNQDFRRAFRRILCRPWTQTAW", "experiment": "GPCR counterscreen binding assay", "procedure": "as §1"}, "Nociceptin NOP1": {"target": "Nociceptin NOP1 (Homo sapiens, UniProt P41146)", "sequence (P41146 whole entry)": "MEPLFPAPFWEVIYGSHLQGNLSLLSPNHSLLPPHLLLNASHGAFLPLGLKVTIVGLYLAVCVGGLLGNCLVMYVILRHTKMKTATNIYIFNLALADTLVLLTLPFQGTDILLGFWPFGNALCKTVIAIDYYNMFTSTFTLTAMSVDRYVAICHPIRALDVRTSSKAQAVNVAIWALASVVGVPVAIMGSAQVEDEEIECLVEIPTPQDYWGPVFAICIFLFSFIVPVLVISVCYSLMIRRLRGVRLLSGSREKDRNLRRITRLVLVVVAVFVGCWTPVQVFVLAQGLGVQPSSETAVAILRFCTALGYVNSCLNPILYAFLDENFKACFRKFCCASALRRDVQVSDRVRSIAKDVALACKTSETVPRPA", "experiment": "GPCR counterscreen binding assay", "procedure": "as §1"}, "Prokineticin PKR1": {"target": "Prokineticin PKR1 (Homo sapiens, UniProt Q8TCW9)", "sequence (Q8TCW9 whole entry)": "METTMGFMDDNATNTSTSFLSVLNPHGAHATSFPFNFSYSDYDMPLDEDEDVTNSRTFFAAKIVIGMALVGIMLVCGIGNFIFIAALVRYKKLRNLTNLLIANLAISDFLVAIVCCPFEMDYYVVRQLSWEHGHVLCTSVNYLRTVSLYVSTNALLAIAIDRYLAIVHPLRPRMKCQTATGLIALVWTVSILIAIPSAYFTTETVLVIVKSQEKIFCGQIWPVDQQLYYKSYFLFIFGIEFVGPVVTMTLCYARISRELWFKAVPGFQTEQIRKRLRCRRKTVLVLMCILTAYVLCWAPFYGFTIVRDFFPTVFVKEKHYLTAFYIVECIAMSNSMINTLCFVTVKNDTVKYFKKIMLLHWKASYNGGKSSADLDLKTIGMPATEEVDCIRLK", "experiment": "GPCR counterscreen binding assay", "procedure": "as §1"}, "VR1N": {"system": "VR1N", "experiment": "GPCR counterscreen binding assay", "conditions": "@ 4 μM", "procedure": "as §1"}, "Muscarinic M3": {"target": "Muscarinic M3 (Homo sapiens, UniProt P20309)", "sequence (P20309 whole entry)": "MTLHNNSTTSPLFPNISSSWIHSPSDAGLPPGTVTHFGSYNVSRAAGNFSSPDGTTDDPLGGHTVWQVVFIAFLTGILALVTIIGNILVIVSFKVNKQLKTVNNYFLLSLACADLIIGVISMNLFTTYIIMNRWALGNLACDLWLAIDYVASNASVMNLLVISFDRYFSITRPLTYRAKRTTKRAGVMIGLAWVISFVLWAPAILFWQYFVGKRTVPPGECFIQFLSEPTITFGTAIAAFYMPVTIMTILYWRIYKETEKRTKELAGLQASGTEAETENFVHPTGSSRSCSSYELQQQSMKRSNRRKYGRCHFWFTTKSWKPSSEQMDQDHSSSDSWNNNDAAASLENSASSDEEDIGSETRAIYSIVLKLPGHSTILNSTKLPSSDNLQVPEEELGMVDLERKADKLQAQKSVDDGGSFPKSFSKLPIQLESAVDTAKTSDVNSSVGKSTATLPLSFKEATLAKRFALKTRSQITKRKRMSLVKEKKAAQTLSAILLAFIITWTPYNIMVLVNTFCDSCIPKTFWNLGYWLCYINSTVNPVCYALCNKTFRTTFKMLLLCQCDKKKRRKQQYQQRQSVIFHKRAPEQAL", "experiment": "GPCR counterscreen binding assay", "procedure": "as §1"}, "Adrenergic α2A": {"target": "Adrenergic α2A (Homo sapiens, UniProt P08913)", "experiment": "GPCR counterscreen binding assay", "procedure": "as §1"}, "MRGX2": {"target": "MRGX2 (Homo sapiens, UniProt Q96LB1)", "experiment": "GPCR counterscreen binding assay", "procedure": "as §1"}, "Delta opiate": {"target": "Delta opiate (Homo sapiens, UniProt P41143)", "sequence (P41143 whole entry)": "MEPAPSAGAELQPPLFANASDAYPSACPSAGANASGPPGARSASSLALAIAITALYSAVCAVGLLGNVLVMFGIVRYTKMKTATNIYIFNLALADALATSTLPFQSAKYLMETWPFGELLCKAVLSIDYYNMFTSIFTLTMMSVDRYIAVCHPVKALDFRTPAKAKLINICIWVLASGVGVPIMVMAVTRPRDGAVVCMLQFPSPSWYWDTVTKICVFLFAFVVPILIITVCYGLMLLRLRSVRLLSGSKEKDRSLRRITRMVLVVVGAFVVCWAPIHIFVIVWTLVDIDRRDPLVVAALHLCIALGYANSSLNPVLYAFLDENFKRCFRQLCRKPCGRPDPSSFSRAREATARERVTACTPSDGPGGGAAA", "experiment": "GPCR counterscreen binding assay", "procedure": "as §1"}, "Adenosine A2A": {"target": "Adenosine A2A (Homo sapiens, UniProt P29274)", "sequence (P29274 whole entry)": "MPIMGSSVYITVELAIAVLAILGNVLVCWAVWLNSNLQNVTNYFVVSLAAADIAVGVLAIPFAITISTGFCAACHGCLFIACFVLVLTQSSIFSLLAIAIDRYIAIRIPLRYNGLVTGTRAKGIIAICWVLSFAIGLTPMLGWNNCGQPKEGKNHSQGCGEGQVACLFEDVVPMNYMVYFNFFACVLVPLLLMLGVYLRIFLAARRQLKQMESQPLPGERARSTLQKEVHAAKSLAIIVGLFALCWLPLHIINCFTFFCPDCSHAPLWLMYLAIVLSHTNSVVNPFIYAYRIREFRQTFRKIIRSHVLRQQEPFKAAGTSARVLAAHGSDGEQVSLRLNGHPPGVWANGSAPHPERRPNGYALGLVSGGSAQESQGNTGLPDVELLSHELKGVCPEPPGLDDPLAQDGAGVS", "experiment": "GPCR counterscreen binding assay", "procedure": "as §1"}, "Vasopressin (oxytocin)": {"target": "Vasopressin (oxytocin) (Homo sapiens, UniProt P30559)", "experiment": "GPCR counterscreen binding assay", "procedure": "as §1"}, "Purinergic P2Y1_2": {"system": "Purinergic P2Y1_2", "experiment": "GPCR counterscreen binding assay", "conditions": "@ 4 μM", "procedure": "as §1"}, "Neuropeptide Y (Y2)": {"target": "Neuropeptide Y (Y2) (Homo sapiens, UniProt P49146)", "sequence (P49146 whole entry)": "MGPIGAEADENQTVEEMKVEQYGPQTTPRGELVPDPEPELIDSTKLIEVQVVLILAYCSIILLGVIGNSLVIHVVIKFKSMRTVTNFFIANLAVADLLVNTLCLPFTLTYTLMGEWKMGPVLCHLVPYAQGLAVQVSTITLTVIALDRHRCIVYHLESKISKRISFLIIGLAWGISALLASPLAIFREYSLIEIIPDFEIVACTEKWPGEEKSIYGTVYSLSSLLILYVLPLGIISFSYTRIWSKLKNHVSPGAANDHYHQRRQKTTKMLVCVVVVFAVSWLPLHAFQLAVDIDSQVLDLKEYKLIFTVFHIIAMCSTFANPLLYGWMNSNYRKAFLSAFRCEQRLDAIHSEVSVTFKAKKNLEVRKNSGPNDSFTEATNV", "experiment": "GPCR counterscreen binding assay", "procedure": "as §1"}, "Muscarinic M5": {"target": "Muscarinic M5 (Homo sapiens, UniProt P08912)", "experiment": "GPCR counterscreen binding assay", "procedure": "as §1"}, "Kappa opiate": {"target": "Kappa opiate (Homo sapiens, UniProt P41145)", "experiment": "GPCR counterscreen binding assay", "procedure": "as §1"}, "Vasopressin (V1a)": {"target": "Vasopressin (V1a) (Homo sapiens, UniProt P37288)", "experiment": "GPCR counterscreen binding assay", "procedure": "as §1"}, "Histamine H1": {"target": "Histamine H1 (Homo sapiens, UniProt P35367)", "experiment": "GPCR counterscreen binding assay", "procedure": "as §1"}, "MRGX1": {"target": "MRGX1 (Homo sapiens, UniProt Q96LB2)", "experiment": "GPCR counterscreen binding assay", "procedure": "as §1"}, "Dopamine D2": {"target": "Dopamine D2 (Homo sapiens, UniProt P14416)", "experiment": "GPCR counterscreen binding assay", "procedure": "as §1"}, "CCR3": {"target": "CCR3 (Homo sapiens, UniProt P51677)", "sequence (P51677 whole entry)": "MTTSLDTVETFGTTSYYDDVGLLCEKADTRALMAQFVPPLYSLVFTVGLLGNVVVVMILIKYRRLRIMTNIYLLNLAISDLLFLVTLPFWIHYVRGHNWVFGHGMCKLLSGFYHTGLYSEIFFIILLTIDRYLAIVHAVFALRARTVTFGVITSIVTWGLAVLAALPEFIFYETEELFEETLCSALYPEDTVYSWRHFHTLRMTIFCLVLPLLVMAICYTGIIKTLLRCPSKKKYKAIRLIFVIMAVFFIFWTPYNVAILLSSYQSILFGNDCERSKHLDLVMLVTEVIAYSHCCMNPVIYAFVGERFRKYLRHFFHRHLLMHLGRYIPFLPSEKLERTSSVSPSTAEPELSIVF", "experiment": "GPCR counterscreen binding assay", "procedure": "as §1"}, "Adrenergic α2C": {"target": "Adrenergic α2C (Homo sapiens, UniProt P18825)", "sequence (P18825 whole entry)": "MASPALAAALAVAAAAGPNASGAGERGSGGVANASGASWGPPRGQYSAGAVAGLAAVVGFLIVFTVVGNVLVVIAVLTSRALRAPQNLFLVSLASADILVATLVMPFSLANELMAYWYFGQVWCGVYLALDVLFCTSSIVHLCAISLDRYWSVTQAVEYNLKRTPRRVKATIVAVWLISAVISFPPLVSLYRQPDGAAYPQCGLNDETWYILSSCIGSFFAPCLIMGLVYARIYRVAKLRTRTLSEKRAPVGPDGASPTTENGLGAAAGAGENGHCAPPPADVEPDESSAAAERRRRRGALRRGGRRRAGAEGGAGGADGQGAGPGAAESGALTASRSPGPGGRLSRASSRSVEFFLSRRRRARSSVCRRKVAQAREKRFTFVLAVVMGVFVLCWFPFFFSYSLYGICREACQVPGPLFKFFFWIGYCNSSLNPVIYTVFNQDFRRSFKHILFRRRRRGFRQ", "experiment": "GPCR counterscreen binding assay", "procedure": "as §1"}, "Dopamine D3": {"target": "Dopamine D3 (Homo sapiens, UniProt P35462)", "sequence (P35462 whole entry)": "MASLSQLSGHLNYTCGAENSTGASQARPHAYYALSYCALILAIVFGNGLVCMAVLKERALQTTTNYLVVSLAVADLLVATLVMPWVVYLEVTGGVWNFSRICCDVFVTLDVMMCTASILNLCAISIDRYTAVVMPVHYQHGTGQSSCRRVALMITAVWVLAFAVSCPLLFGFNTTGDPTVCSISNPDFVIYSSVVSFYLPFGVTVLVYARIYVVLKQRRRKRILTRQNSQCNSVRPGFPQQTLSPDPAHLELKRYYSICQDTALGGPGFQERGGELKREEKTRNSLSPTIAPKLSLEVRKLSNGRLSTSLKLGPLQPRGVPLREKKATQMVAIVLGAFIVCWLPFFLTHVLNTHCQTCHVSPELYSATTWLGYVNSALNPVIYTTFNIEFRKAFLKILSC", "experiment": "GPCR counterscreen binding assay", "procedure": "as §1"}, "Neuropeptide Y (Y1)": {"target": "Neuropeptide Y (Y1) (Homo sapiens, UniProt P25929)", "experiment": "GPCR counterscreen binding assay", "procedure": "as §1"}, "MCHR1": {"target": "MCHR1 (Homo sapiens, UniProt Q99705)", "sequence (Q99705 whole entry)": "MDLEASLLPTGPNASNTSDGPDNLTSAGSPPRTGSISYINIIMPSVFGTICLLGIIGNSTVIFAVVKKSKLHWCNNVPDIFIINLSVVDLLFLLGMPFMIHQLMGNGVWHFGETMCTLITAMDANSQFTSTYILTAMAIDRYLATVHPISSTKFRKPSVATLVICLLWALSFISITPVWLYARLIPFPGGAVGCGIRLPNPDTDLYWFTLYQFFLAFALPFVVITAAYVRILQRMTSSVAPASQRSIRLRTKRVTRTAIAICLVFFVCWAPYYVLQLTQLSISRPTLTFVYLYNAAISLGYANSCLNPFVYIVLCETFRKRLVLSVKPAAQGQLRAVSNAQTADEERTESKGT", "experiment": "GPCR counterscreen binding assay", "procedure": "as §1"}, "CXCR1": {"target": "CXCR1 (Homo sapiens, UniProt P25024)", "sequence (P25024 whole entry)": "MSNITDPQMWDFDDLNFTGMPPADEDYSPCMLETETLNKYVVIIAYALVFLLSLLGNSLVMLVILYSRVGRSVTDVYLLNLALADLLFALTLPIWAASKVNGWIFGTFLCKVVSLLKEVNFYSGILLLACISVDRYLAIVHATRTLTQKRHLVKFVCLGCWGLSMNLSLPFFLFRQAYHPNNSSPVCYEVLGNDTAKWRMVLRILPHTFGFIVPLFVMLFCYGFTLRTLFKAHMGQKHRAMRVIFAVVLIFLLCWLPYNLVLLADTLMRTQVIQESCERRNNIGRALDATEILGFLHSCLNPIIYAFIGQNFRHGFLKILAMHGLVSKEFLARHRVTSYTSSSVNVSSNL", "experiment": "GPCR counterscreen binding assay", "procedure": "as §1"}, "[1]": {"conditions": "40 mpk, paws collected on day 9"}}, "data": [{"smiles": "CC[C@H]1CN(c2nc(N)c(C(N)=O)nc2Cl)CCN1C1CCN(Cc2ccc(Cl)cc2)CC1", "note": "[SCH 546738]", "values": [{"measurement": "effect on disease severity", "setting": "male B10.RIII mice; 3 mpk oral twice daily", "result": "no statistically significant effect"}, {"measurement": "effect on disease score", "setting": "male B10.RIII mice; 10 mpk oral twice daily, days 7 and 9", "result": "protected significantly"}, {"measurement": "effect on disease score", "setting": "male B10.RIII mice; 40 mpk oral twice daily, day -4 to day 9, days 4, 7 and 9", "result": "significant reduction of the disease score"}, {"measurement": "leukocyte infiltration into the joint (histopathology score)", "setting": "male B10.RIII mice; [1]", "result": "significantly attenuated"}, {"measurement": "structural damage to the bone and cartilage (histopathology score)", "setting": "male B10.RIII mice; [1]", "result": "significantly attenuated"}, {"measurement": "inhibition at 10 µM", "setting": "CCR5", "result": 10, "unit": "%"}, {"measurement": "inhibition at 4 µM", "setting": "Dopamine D1", "result": 6, "unit": "%"}, {"measurement": "inhibition at 2 µM", "setting": "Adrenergic α1B", "result": 25, "unit": "%"}, {"measurement": "inhibition at 2 µM", "setting": "Neurokinin NK2", "result": 0, "unit": "%"}, {"measurement": "inhibition at 10 µM", "setting": "CCR7", "result": 0, "unit": "%"}, {"measurement": "inhibition at 4 µM", "setting": "Vasopressin (V2)", "result": 18, "unit": "%"}, {"measurement": "inhibition at 2 µM", "setting": "Adrenergic α2B", "result": -2, "unit": "%"}, {"measurement": "inhibition at 4 µM", "setting": "Nociceptin NOP1", "result": -21, "unit": "%"}, {"measurement": "inhibition at 4 µM", "setting": "Prokineticin PKR1", "result": -1, "unit": "%"}, {"measurement": "Inhibition (%)", "setting": "VR1N", "result": 0, "unit": "% @ 4 μM"}, {"measurement": "inhibition at 4 µM", "setting": "Muscarinic M3", "result": 27, "unit": "%"}, {"measurement": "inhibition at 1 µM", "setting": "Adrenergic α2A", "result": 45, "unit": "%"}, {"measurement": "inhibition at 4 µM", "setting": "MRGX2", "result": 25, "unit": "%"}, {"measurement": "inhibition at 4 µM", "setting": "Delta opiate", "result": 12, "unit": "%"}, {"measurement": "inhibition at 4 µM", "setting": "Adenosine A2A", "result": 3, "unit": "%"}, {"measurement": "inhibition at 4 µM", "setting": "Vasopressin (oxytocin)", "result": 12, "unit": "%"}, {"measurement": "Inhibition (%)", "setting": "Purinergic P2Y1_2", "result": 10, "unit": "% @ 4 μM"}, {"measurement": "inhibition at 4 µM", "setting": "Neuropeptide Y (Y2)", "result": -9, "unit": "%"}, {"measurement": "inhibition at 4 µM", "setting": "Muscarinic M5", "result": 28, "unit": "%"}, {"measurement": "inhibition at 4 µM", "setting": "Kappa opiate", "result": 7, "unit": "%"}, {"measurement": "inhibition at 4 µM", "setting": "Vasopressin (V1a)", "result": 7, "unit": "%"}, {"measurement": "inhibition at 2 µM", "setting": "Histamine H1", "result": 46, "unit": "%"}, {"measurement": "inhibition at 4 µM", "setting": "MRGX1", "result": 1, "unit": "%"}, {"measurement": "inhibition at 4 µM", "setting": "Dopamine D2", "result": 41, "unit": "%"}, {"measurement": "inhibition at 10 µM", "setting": "CCR3", "result": 17, "unit": "%"}, {"measurement": "inhibition at 1 µM", "setting": "Adrenergic α2C", "result": 76, "unit": "%"}, {"measurement": "inhibition at 10 µM", "setting": "Dopamine D3", "result": 18, "unit": "%"}, {"measurement": "inhibition at 4 µM", "setting": "Neuropeptide Y (Y1)", "result": 4, "unit": "%"}, {"measurement": "inhibition at 10 µM", "setting": "MCHR1", "result": 0, "unit": "%"}, {"measurement": "inhibition at 10 µM", "setting": "CXCR1", "result": 13, "unit": "%"}]}]}
